Values belong to the compound of their own block, whether it stands above or below them.
How the values were obtained:
[1] = test system: NIH 3T3 fibroblasts; assay: Cell growth potentiation test (potentiation of mitogenic activity of fetal calf serum, EZ4U cellular proliferation assay); type: cell-based; details: for Cell growth potentiation relative to minoxidil at 100 μM (%): 0% = base concentration of FCS alone (5% or 3%), 100% = minoxidil at 100 μM; for Cell growth relative to FCS alone (%): 100% = same growth as base concentration of FCS alone
Text: To test for activity in mammalian hair growth stimulation, an in vitro test of cell growth potentiation has been applied to a number of the compounds of the invention and prior art compounds 11901 and 11903. The test involves an assay of the call growth due to potentiation of the mitogenic activity of fetal calf serum (FCS). See WO97/14036. Details of materials, methods and results are as follows.
Tissue culture plastics were obtained from Beckton Dickinson (Cowley, Oxford, UK). NIH 3T3 fibroblasts were obtained from the European collection of animal cell cultures (Salisbury, Wilts, UK). Dulbecco's modified Eagle's medium (DMEM) was obtained from Flow Laboratories (Rickmansworth, Herts, UK). L-Glutamine and fetal calf serum were from Gibco (Paisley, UK).
The EZ4U cell proliferation assay kits were obtained from Cozart Bioscience Ltd (Abingdon, Oxon, UK). All other chemicals were obtained from Sigma Chemical Company Ltd. (Poole, Dorset, UK), and of the highest grade available.
NIH 3T3 fibroblasts were maintained in Dulbecco's modified Eagle's medium supplemented with 10% FCS and 2 mM L-glutamine in 150 cm^2 tissue culture flasks at 37° C. in an atmosphere of 5% CO2/95% air. Antibiotics were omitted. Medium was changed every 3 days, and passages were carried out twice a week before cells reached confluence. Prior to experiments, cells were passaged and plated out to give 10^4 cell/ml in 96-well multi-well plates. Cells were incubated for 24 hours with Dulbecco's modified Eagle's medium supplemented with 10% FCS to aid attachment. This was then removed and the experimental medium added.
Compounds were prepared following a general preparation protocol. This protocol consisted of taking a mass of compound, dissolving in the recommended solvent (40 μl) such that in the final preparation the concentrations of compound and solvent would be 100 μM and 0.1 respectively. In theory this volume was 40 μl, however for accuracy a mass larger than the required mass was dispensed and the solvent volume varied accordingly; only 40 μl of this solution was required for the next stage. The 40 μl volume was then added to a volume of FCS (1.2 ml), such that in the final preparation the concentration of FCS would be 3%. This solution was then added to DMEM containing L-glutamine (2 mM) (18.76 ml). The resulting solution of 20 ml volume was filter stabilised. This solution is now 200 μM in compound, 6% FCS and 0.2% solvent, and so was diluted 1:1 with the DMEM containing L-glutamine. This 100 μM stock could then be diluted serially to provide lower concentrations of the compound of interest. Solutions containing different ratios of compound and FCS were obtained in a similar manner.
This was performed, following the manufacturer's instructions, using an EZ4U assay kit, which is based upon the conversion of tetrazolium salt to coloured formazam derivatives by mitochondria (Hansen et al, 1989). Plates were read on a plate reader (Anthos Labtec HT2), using a measurement filter (450 nm), with a reference filter (620 nm) with a low Shaking density for 5 seconds prior to measurement. Control experiments were made against counting cells in a haemocytometer (sanders et al, 1996). There is some variance of results between different batches of FCS employed.
A series of cell growth potentiation/inhibition tests has been carried out in accordance with the procedure described above on some of the compounds of the invention, on compounds 11901 and 11903 and on minoxidil (a compound well known for its hair growth stimulation effects). Because of some variability of results with different batches of FCS, each compound was tested in a solution of a base concentration of FCS and was compared with minoxidil in a solution of the same base concentration of FCS and with a solution having the same base concentration of FCS alone (no additive), using the same FCS batch in order to provide standardised comparisons for that compound. […]

[2] = test system: K+-stimulated isolated rat aorta; assay: K+-stimulated isolated rat aorta test; details: relaxation of contraction triggered by 25 mM KCl in rat aorta rings; asterisk (*) = low activity, only approximate value
Protocol: K^+-stimulated Isolated Rat Aorta Test
Male rats weighing about 300 g are killed painlessly by a blow to the neck and quickly exsanguinated. The thoracic cavity is opened and the aorta is carefully resectioned. It is placed in a Petri dish filled with Krebs solution, and surrounding connective and fatty tissue is removed. Two rings are prepared. The rings are each suspended in an organ bath, They are attached at the bottom to a hook and at the top to an electrical force transducer which is able to measure precisely contractions of 0-10 grams in strength. The measured contractions are amplified by means of a bridge amplifier and recorded with a thermal plotter.
The organ baths are filled with Krebs solution at 37° C. through which an O2/CO2 mixture is bubbled thoroughly and which has the following composition (mmol/1): NaCl 118.4; KCl 4.7; CaCl2 2.5; KH2PO4 1.2; MgSO4 1.2; NaHCO3 25; glucose 11.
The rings are stretched with a basic tone of about 0.5 g, After an equilibration time of about 30 minutes, the rings are caused to undergo contraction by depolarization (addition of 25 mM KCl to the organ bath). The contractions of the rings of aorta, triggered by the depolarization, quickly reach a plateau, As soon as this plateau is reached (“100% value”), the test substance is added to the organ bath, initially at low concentrations, for example 10^−8M, and then in increasing doses at regular intervals, until the contractions reduce or the final concentration of 10^−4M is reached. Each test substance is tested 2-4 times in this way.
For purposes of evaluation, the height of the contractions registered on the plotter paper is measured for each experiment after the action of each test concentration added. The IC50 value can be calculated in this way in relation to the original height of contractions before the addition of substance (100%).

Compound: 5,5-Dimethyl-7-(2-oxo-1-pyrrolidinyl)-2-(thiazolin-2-yl)-5-thieno[3,2-b]pyran [Compound 50133]
Cell growth potentiation relative to minoxidil at 100 μM (%) ([1]; Compound at 10 μM): 54% | Cell growth relative to FCS alone (%) ([1]; Compound at 100 μM): 60%

Compound: 6′,7′-Dihydro-5′,5′-dimethylspiro[1,3-dithialane-2,7′-5H-thieno[3,2-b]pyran]-2′-carbonitrile [Compound 50066]
IC50 [2]: ~10 µM | Cell growth potentiation relative to minoxidil at 100 μM (%) ([1]; Compound at 10 μM): 355% | Cell growth potentiation relative to minoxidil at 100 μM (%) ([1]; Compound at 100 μM): 144%

Compound: 6′,7′-Dihyrdro-5′,5′-dimethylspiro[1,3-dithiolane-2,7′-5H-thieno[3,2-b]pyran] [Compound 50063]
IC50 [2]: ~10 µM | Cell growth relative to FCS alone (%) ([1]; Compound at 10 μM): 55% | Cell growth relative to FCS alone (%) ([1]; Compound at 100 μM): 93%

Compound: CC1=C(C)C[C@]2(CC(C)(C)Oc3ccsc32)[S@+]([O-])C1 (relative stereo) [Compound 50054, rel-(1′R, 2′R)-3′,6,6′,7-Tetrahydro-4′,5,5′,5-tetramethylspiro[5H-thieno[3,2-b]pyran-7,2′-2H-thiopyran]-1′-oxide]
IC50 [2]: ~3 µM

Compound: CC1=C(C)C[C@@]2(CC(C)(C)Oc3ccsc32)[S@+]([O-])C1 (relative stereo) [Compound 50055, rel-(1′R, 2′S)-3′,6,6′,7-Tetrahydro-4′,5,5′,5-tetramethylspiro[5N-thieno[3,2-b]pyran-7,2′-2H-thiopyran]-1′-oxide]
IC50 [2]: ~10 µM

Compound: CC1(C)C[C@@]2(SCC[S@+]2[O-])c2sccc2O1 (relative stereo) [Compound 50064, rel-(1S, 2S)-6′,7′-Dihydro-5′,5′-dimethylspiro[1,3-dithiolane-2,7′-5H-thieno[3,2-b]pyran]-1-oxide]
IC50 [2]: ~10 µM

Compound: CC1(C)C[C@]2(SCC[S@+]2[O-])c2sccc2O1 (relative stereo) [Compound 50065, rel-(1S, 2R)-6′,7′-Dihydro-5′,5′-dimethylspiro[1,3-dithiolane-2,7′-5H-thieno[3,2-b]pyran]-1-oxide]
IC50 [2]: ~30 µM

Compound: CC1(C)C[C@]2(SCCC[S@+]2[O-])c2sccc2O1 (relative stereo) [Compound 50070, rel-(1S, 2R)-6′,7′-Dihydro-5′,5′-dimethylspiro[1,3-dithiane-2,7′-5H-thieno[3,2-b]pyran]-1-oxide]
Cell growth relative to FCS alone (%) ([1]; Compound at 10 μM): 81% | Cell growth relative to FCS alone (%) ([1]; Compound at 100 μM): 78%

Compound: CC1(C)Oc2cc(C(F)(F)C(F)(F)F)sc2[C@@H](N2CCCCC2=O)[C@@H]1O (relative stereo) [Compound 50174, rel-(6S, 78S)-2-(Pentafluoroethyl)-6,7-dihydro-6-hydroxy-5,5-dimethyl-7-(2-oxo-1-piperidinyl)-5H-thieno[3,2-b]pyran]
Cell growth potentiation relative to minoxidil at 100 μM (%) ([1]; Compound at 10 μM): 244% | Cell growth potentiation relative to minoxidil at 100 μM (%) ([1]; Compound at 100 μM): 133%

Compound: CC1(C)C=C(N2CCCC2=O)c2sc(C#N)cc2O1 [Compound 50040, 5,5-Dimethyl-7-(2-oxo-1-pyrrolidinyl)-5H-thieno[3,2-b]pyran-2-carbonitrile]
Cell growth potentiation relative to minoxidil at 100 μM (%) ([1]; Compound at 10 μM): 24% | Cell growth potentiation relative to minoxidil at 100 μM (%) ([1]; Compound at 100 μM): 48%

Compound: CC1=C(C)C(C2=CC(C)(C)Oc3cc(C#N)sc32)[S+]([O-])C1 (stereo not shown) [Compound 50106, 5,5-Dimethyl-(2,5-dihydro-3,4-dimethyl-1-oxy-thien-2-yl)-5H-thieno[3,2-b]pyran-2-carbonitrile]
Cell growth relative to FCS alone (%) ([1]; Compound at 10 μM): 80% | Cell growth potentiation relative to minoxidil at 100 μM (%) ([1]; Compound at 100 μM): 60%

Compound: Nc1cc(N2CCCCC2)nc(N)[n+]1[O-] [minoxidil, reference compound]
concentration of greatest potentiation of mitogenic activity of FCS ([1]; 5% FCS, FIG. 2, 100% growth = value for 10% FCS): 100 µM

Second part, led by results:

IC50 [2]: ~100 µM
Compound: CC1(C)C[C@@]2(SCC[S@+]2[O-])c2sc(C#N)cc2O1 (relative stereo) [Compound 50067, rel-(1S, 2S)-6′,7′-Dihydro-5′,5′-dimethylspiro[1,3-dithiolane-2,7′-5H-thieno[3,2-b]pyran]-2′-carbonitrile-1-oxide]
Cell growth relative to FCS alone (%) ([1]; Compound at 10 μM): 96% | Cell growth relative to FCS alone (%) ([1]; Compound at 100 μM): 69%

IC50 [2]: ~30 µM
Compound: CC1(C)C[C@]2(SCC[S@+]2[O-])c2sc(C#N)cc2O1 (relative stereo) [Compound 50068, rel-(1S, 2R)-6′,7′-Dihydro-5′,5′-dimethylspiro[1,3-dithiolane-2,7′-5H-thieno[3,2-b]pyran]-2′-carbonitrile-1-oxide]

IC50 [2]: 2.3 µM
Compound: CC1=C(C)C[C@]2(CC(C)(C)Oc3cc(C#N)sc32)[S@+]([O-])C1 (relative stereo) [Compound 50096, rel-(1′R, 2′R)-3′,6,6′,7-Tetrahydro-4′,5,5′,5-tetramethyl-1′-oxospiro[5H-thieno[3,2-b]pyran-7,2′-2H-thiopyran-2-carbonitrile]

IC50 [2]: 6.3 µM
Compound: CC1=C(C)C[C@]2(CC(C)(C)Oc3cc(S(=O)(=O)c4ccccc4)sc32)[S@+]([O-])C1 (relative stereo) [Compound 50126, rel-(1′R,2′R)-3′,6,6′,7-Tetrahydro-4′,5,5′,5-tetramethyl-2-(phenylsulphonyl)spiro[5H-thieno[3,2-b]pyran-7,2′-2H-thiopyran]1′-oxide]

IC50 [2]: 7.4 µM
Compound: CC1=C(C)C[C@@]2(CC(C)(C)Oc3cc(S(=O)(=O)c4ccccc4)sc32)[S@+]([O-])C1 (relative stereo) [Compound 50127, rel-(1′R,2′S)-3′,6,6′,7-Tetrahydro-4′,5,5′,5-tetramethyl-2-(phenylsulphonyl)spiro[5H-thieno[3,2-b]pyran-7,2′-2H-thiopyran]1′-oxide]

IC50 [2]: 0.018 µM
Compound: CC1(C)Oc2cc(S(=O)(=O)c3ccccc3)sc2[C@@H](N2CCCC2=O)[C@@H]1O [Compound 50108, (?)-(6S, 7S)-6,7-Dihydro-6-hydroxy-5,5-dimethyl-7-(2-oxo-1-pyrrolidinyl)-2-(phenylsulphonyl)-5H-thieno[3,2-b]pyran]

IC50 [2]: 10 µM
Compound: CC1=C(C)CS(=O)(=O)C2(C1)CC(C)(C)Oc1ccsc12 (stereo not shown) [Compound 50110, 3′,6,6′,7-Tetrahydro-4′,5,5,5′-tetramethyl-spiro[5H-thieno[3,2-b]pyran-7,2′-2H-thiopyran]-1′,1′-dioxide]

IC50 [2]: 3 µM
Compound: CC1(C)CC2(CC3(C)OC3(C)CS2(=O)=O)c2sccc2O1 (stereo not shown) [Compound 50111, 4′,5′-Epoxy-3′,6,6′,7-tetrahydro-4′,5,5,5′-tetramethyl-spiro[5H-thieno[3,2-b]pyran-7,2′-2H-thiopyran]-1′,1′-dioxide]
